Assay results from US10654872B1, “Polymorphs of dolutegravir and salts thereof” (Laurus Labs Limited, priority 2015, dated 2020).

Experiments:
Assay type in all cases: physicochemical
[1] = Stability data of dolutegravir sodium Form-L9 stored at 40±2° C./75±5% RH
Protocol: Dolutegravir sodium Form-L9 was packed in a Low density polyethylene (LDPE) bag with a strip seal, which is again kept in a second low density polyethylene bag with strip seal. The LDPE bag is kept in a high density polyethylene (HDPE) container and well closed and loaded for stability chamber. […] The purity of dolutegravir sodium was analysed using high performance liquid chromatography (“HPLC”) with the conditions is tabulated below: [table]

[2] = Hygroscopic study at 85% relative humidity; conditions: room temperature, one week (24, 48, 72, 168 hours)
Protocol: Dolutegravir sodium Form-L9 was exposed to 85% relative humidity at room temperature for one week and was analyzed by PXRD at different time intervals such as 24 hours, 48 hours, 72 hours and 168 hours. […] The overlaid PXRD pattern of dolutegravir sodium Form-L9 subjected to hygroscopic study at 85% RH is represented as Figure-25.

[3] = Thermal stability of Form-L9 in oven at 60° C. and 100° C. (PXRD, DSC); conditions: for Form after heating, DSC / Form after heating, PXRD: 24 hrs
Protocol: Dolutegravir sodium Form-L9 was kept in an oven at 60° C. and 100° C. for 24 hrs.

[4] = Aqueous solubility at different pH buffers, UV quantification

- Des fluoro dolutegravir ([1]; 1 month): 0.08 % w/w
- PXRD (polymorphic form) ([1]; 1 month): Form-L9
- Purity by HPLC ([1]; 1 month): 99.9 % w/w
- Water content ([1]; 1 month): 1.9 % w/w
- Des fluoro dolutegravir ([1]; 2 month): 0.09 % w/w
- PXRD (polymorphic form) ([1]; 2 month): Form-L9
- Purity by HPLC ([1]; 2 month): 99.9 % w/w
- Water content ([1]; 2 month): 2 % w/w
- Des fluoro dolutegravir ([1]; 3 month): 0.10 % w/w
- PXRD (polymorphic form) ([1]; 3 month): Form-L9
- Purity by HPLC ([1]; 3 month): 99.8 % w/w
- Water content ([1]; 3 month): 2.3 % w/w
- Des fluoro dolutegravir ([1]; Initial): 0.09 % w/w
- PXRD (polymorphic form) ([1]; Initial): Form-L9
- Purity by HPLC ([1]; Initial): 99.8 % w/w
- Water content ([1]; Initial): 2.2 % w/w
- Polymorphic nature after hygroscopic study [2]: same polymorphic nature retained
- Stability at elevated temperatures ([3]; 60° C. and 100° C. for 24 hours): stable even at elevated temperatures
- Form after heating, DSC ([3]; 60° C.): Form-L9
- Form after heating, PXRD ([3]; 60° C.): Form-L9
- Form after heating, DSC ([3]; 100° C.): Form-L9
- Form after heating, PXRD ([3]; 100° C.): Form-L9
- Polymorphic nature after thermal study (PXRD and DSC) ([3]; oven at 60° C. and 100° C. for 24 hrs): same polymorphic nature retained
- Solubility profile versus dolutegravir sodium anhydrous form [4]: comparable
SMILES: C[C@@H]1CCO[C@H]2Cn3cc(C(=O)NCc4ccc(F)cc4F)c(=O)c(O)c3C(=O)N12 [Form-L9, dolutegravir sodium]
- Polymorphic and chemical stability on storage ([1]; at least up to three months, LDPE bags in HDPE container): retained the same polymorphic and chemical identity
